Data set [1] can be described thus: Cloud point of the surfactant. The format is physicochemical.
A short description of data set [2]: Solubility and dispersion of the surfactant in physiological saline. Format: physicochemical. Here is the method:
A des fins de comparaison, on a également utilisé les microémulsions ci-dessus d'une part en présence d'éthanol et d'autre part en l'absence d'éthanol.
En présence d'éthanol (VN), une solution limpide a été obtenue avec l'agent tensio-actif. Celle-ci, ajoutée dans les proportions de 0,2 ml à 1,8 ml d'eau physiologique, a donné, après agitation, une émulsion laiteuse, instable, s'éclaircissant en 15 minutes environ, tant à la température du laboratoire qu'à 37 °C.

The subject of data set [3] is sang humain. Kind of data set: In vitro haemocompatibility: direct action on blood, overall observation. Here is the method: On a recherché si les microémulsions selon l'invention avaient une action sur le sang humain en effectuant un thromboélastogramme, en mesurant le temps de thrombine diluée et en évaluant l'hémolyse.
(§1) • le sang humain était du sang de sujets normaux, prélevé le jour de l'essai, en flacon siliconé, et sur citrate à 9 %, dans le rapport du 1/20; • les produits (microémulsions ou témoin) mis en présence de ce sang, en proportions variables, ont permis, après 10 minutes d'incubation à la température du laboratoire, de pratiquer un thromboélastogramme sur sang total, afin de mettre en évidence une action éventuelle sur la coagulation globale selon le mode opératoire décrit par C. RABY dans Biologie des Hémorragies et des Thromboses 1 vol., Masson et Cie, Edit. Paris 1966, p. 187; • un temps de thrombine diluée a été effectué sur les plasmas des sangs ayant été en contact avec les microémulsions selon l'invention pendant 30 minutes à la température du laboratoire selon le mode opératoire décrit par C. RABY à la page 119 de l'ouvrage cité ci-dessus.
(§2) Cette émulsion, mise en présence de quatre échantillons de sang humain, à raison de 0,1 ml pour 0,9 ml de sang, a permis d'effectuer les essais définis ci-dessus.

Data set [4] has as its system sang humain. Kind of data set: Thromboelastogram on whole blood. To be noted: after recalcification, emulsion with ethanol, 10 minutes incubation. Here is the method:
as §1, §2

The subject of data set [5] is sang humain. The data set is described as follows: Diluted thrombin time on plasma of blood put in contact with the products. Format: biochemical. Particulars: summary. As for the experimental part:
as §1
Dans la détermination du temps de thrombine on a utilisé de l'eau physiologique comme témoin.

Data set [6] deals with sang humain. Kind of data set: Haemolysis evaluated on plasma after centrifugation. Format: cell-based. To be noted: plasma after centrifugation of blood at 2 000 g for 15 minutes. As for the experimental part:
as §1
L'hémolyse a été évaluée sur ces plasmas après centrifugation du sang à 2 000 g pendant 15 minutes.

[7] abbreviates: ethanol solution, 0,2 ml in 1,8 ml eau physiologique, laboratory temperature and 37 °C.
Setting [8] is: emulsion with ethanol, 0,1 ml for 0,9 ml blood.

Compound `OCCOCCOCCOCCOCCOCCOCC(F)(F)C(F)(F)C(F)(F)C(F)(F)C(F)(F)C(F)(F)C(F)(F)F` [C7F15CH2(OC2H4)6OH] came in with a point de trouble in data set [1] of under 0 °C. Also, the “soluble dans les solutés physiologiques” value in data set [2] was “n'est pas soluble”. Also, in data set [2] (setting [7]), the “stabilité de l'émulsion” value was “instable” and the “temps d'éclaircissement de l'émulsion” value is about 15 min. Also, in the data set on sang humain [3] (setting [8]), the “action directe sur du sang normal” value is given as “Aucune action directe” and the fluidité result is on record as “n'a pas été altérée”. Besides, the “effet in vitro sur le sang humain, non coagulé” value with sang humain [3] (summary) was “sans effet”. Besides, in the data set on sang humain [4], the “amplitude « amx »” value was “diminution”, the “constante « r »” value is “léger raccourcissement” and the “« k” value is listed as “allongement”. For the same compound, the “activité semblable à la thrombine” value in the data set with sang humain [5] was “ne produisent pas”. Further, the hémolyse entry in the data set with sang humain [6] is “aucune trace”. Besides, the hémolyse entry in the data set on sang humain [6] (listed as agent tensio-actif seul) was “absence”.
